What was measured:
mouse [1] = test: Tail suspension test of behavioural despair; type: in vivo; conditions: control 89.7±38.27
Description: (§1) Using the tail suspension test of “behavioural despair” and the mouse forced swimming test, and choosing Desipra mine as control medicament, to study the primary antidepressant effect of IV-19 that has the strong inhibited effect for both uptake of 5-HT and NA. The results are as follows:
(1). In the tail suspension test, IV-19 can diminish obviously the immobile times of mouse due to despair. The effect induced by 50 mg/kg IV-19 (20.2±16.05 sec) is the same as 10 mg/kg Desipra mine (27.5±21.93 sec), but a significant difference occurs when comparing with control (89.7±38.27).

mouse [2] = test: Mouse forced swimming test; type: in vivo; conditions: control 93.4±27.36
Description: as §1
(2). In the mouse forced swimming test, IV-19 also can diminish obviously the immobile times of mouse in water due to despair. As the results of tail suspension test, the effect induced by 50 mg/kg IV-19 (46.3±30.2 sec) is the same as 10 mg/kg Desipra mine (46±27.36 sec), but a significant difference occurs when comparing with control (93.4±27.36).

[3] = system: Brain Synaptosome Uptake of NA; test: Inhibition of [3H]-NA uptake by brain synaptosomes; type: biochemical, rats; conditions: 0.1 mmol/L; rat frontal cortex synaptosomes; inhibited ratio by Desipramine counts 100%
Source text: (§2) The trial of uptaking the mono-amines neurotransmitter by synaptosomes is now one of the common method to study the central nervous pharmacology. This method is not only used to study the action mechanism of the medicament, but also to look for new antidepressant drugs which act on this tache. […] The method is recounted as follows:
(§3) (1). Preparation of synaptosomes. According to the described method by literatures (a. Biochem Pharmacol 1973, 22: 311-322, b. Methods in Neurochemistry, Vol. 2, New York: Marcel Dakker, Inc, 1972, 1-52), rats were decapitated, the brains rapidly excised, and frontal cortex dissected out on ice-cold saline (4° C.). The 3 g tissue was homogenized in 30 ml of ice-cold 0.32M sucrose and then centrifuged (1500 g) for 10 min (4° C.). The pellet was discarded and the supernatant centrifuged (20000 g) for 30 min (4° C.). After refined, the pellet was resuspended in buffer and immediately used. Protein content was deter mined with kit of total protein.
(§4) (2). Uptake of 5-HT. According to the described method by literatures (Br J Pharmacol, 1997, 122: 302-306; b. 1992, 105: 147-151), in the tubes, 1.0 ml artificial cerebral fluid, 20 μl suspension of synaptosomes and 10 μl solution of compound were added. After mixing, the tubes were incubated 5 min in 37° C. Uptake was started by addition of 10 μl [^3H]-5-HT or [^3H]-NA (300 nM), after another mixing, the tubes were incubated again 5 min in 37° C. The reaction was stopped by cooling the tubes in ice, the samples were then filtered through glass fibre filters and washed twice with artificial cerebral fluid. After drying in 60-70° C., the filter membranes were put into scintillation tubes. Filter-bound radioactivity was counted by scintillation spectrometry. The difference in [^3H]-5-HT or [^3H]-NA at 37° C. and 0° C. was taken as a measure of active uptake.

[4] = system: Brain Synaptosome Uptake of 5-HT; test: Inhibition of [3H]-5-HT uptake by brain synaptosomes; type: biochemical, rats; conditions: 0.1 mmol/L; rat frontal cortex synaptosomes; inhibited ratio by Fluoxetine counts 100%
Source text: as §2, §3, §4

mice = test: Acute toxicity; type: in vivo; conditions: p.o. in mice, calculated with Bliss
[5] = system: S. Typhimurium TA97, TA98, TA100 and TA102; test: Bacterial reverse-mutation assay (Ames TS); type: cell-based
Source text: 4. Bacterial reverse-mutation assay (Ames TS) of IV-19
Bacillus: S. Typhimurium TA97, TA98, TA100 and TA102
All tested doses didn't induce the evident increase of revertants, Ames TS of […] is negative.

Molecule: CNCCCN1c2ccccc2CCc2ccccc21 [Desipra mine, reference compound]
- immobile times of mouse, tail suspension test (mouse [1]; 10 mg/kg): 27.5 ± 21.93 s
- immobile times of mouse in water, forced swimming test (mouse [2]; 10 mg/kg): 46 ± 27.36 s
- Inhibited ratio of uptake for NA(%) [3]: 100%

Molecule: Cl.Cl.OC(c1ccccc1)C(c1ccccc1)N1CCN(Cc2ccccc2)CC1 (centres unmarked) [IV-8, N^1-benzyl-N^4-[(1,2-diphenyl)ethyl-2-ol] piperazine dihydrochloride]
- Inhibited ratio of uptake for NA(%) [3]: 104%
- Inhibited ratio of uptake for 5-HT(%) [4]: <10%

Molecule: Cl.Cl.OC(CN1CCN(Cc2ccc(F)cc2)CC1)c1ccc(Cl)cc1 (centres unmarked) [IV-11, N^1-(4-fluorobenzyl)-N^4-[2-(4-chlorophenyl)ethyl-2-ol] piperazine dihydrochloride]
- Inhibited ratio of uptake for NA(%) [3]: 101%
- Inhibited ratio of uptake for 5-HT(%) [4]: 81%

Molecule: COc1ccc2cc(C(O)C(C)N3CCN(c4cccc(Cl)c4)CC3)ccc2c1Cl.Cl.Cl (centres unmarked) [IV-17, N^1-(3-chlorophenyl)-N^4-[1-(5-chloro-6-methoxyl-naphthalen-2-yl)-propane-2-yl-1-ol] piperazine dihydrochloride]
- Inhibited ratio of uptake for NA(%) [3]: 30%
- Inhibited ratio of uptake for 5-HT(%) [4]: 99%

Molecule: COc1ccc2cc(C(O)C(C)N3CCN(CC(O)c4ccccc4)CC3)ccc2c1Cl.Cl.Cl (centres unmarked) [IV-18, N^1-(2-phenylethyl-2-ol)-N^4-[1-(5-chloro-6-methoxyl-naphthalen-2-yl)-propane-2-yl-1-ol] piperazine dihydrochloride]
- Inhibited ratio of uptake for NA(%) [3]: 23%
- Inhibited ratio of uptake for 5-HT(%) [4]: 127%

Molecule: COc1ccc2cc(C(O)C(C)N3CCN(Cc4ccc([N+](=O)[O-])cc4)CC3)ccc2c1Cl.Cl.Cl (centres unmarked) [IV-20, N^1-(4-nitrobenzyl)-N^4-[1-(5-chloro-6-methoxyl-naphthalen-2-yl)-propane-2-yl-1-ol] piperazine dihydrochloride]
- Inhibited ratio of uptake for NA(%) [3]: 108%
- Inhibited ratio of uptake for 5-HT(%) [4]: 110%

Molecule: COc1cc(CN2CCN(C(C)C(O)c3ccc4c(Cl)c(OC)ccc4c3)CC2)cc(OC)c1OC.Cl.Cl (centres unmarked) [IV-22, N^1-(3,4,5-trimethoxybenzyl)-N^4-[1-(5-chloro-6-methoxyl-naphthalen-2-yl)-propane-2-yl-1-ol] piperazine dihydrochloride]
- Inhibited ratio of uptake for NA(%) [3]: 77%
- Inhibited ratio of uptake for 5-HT(%) [4]: 116%

Molecule: N^1-(4-chlorobenzyl)-N^4-(phenylpropane-2-yl-3-ol) piperazine dihydrochloride [IV-2]
- Inhibited ratio of uptake for NA(%) [3]: 62%
- Inhibited ratio of uptake for 5-HT(%) [4]: 82%

Molecule: N^1-(4-fluorobenzyl)-N^4-(2-phenylethyl-2-ol) piperazine dihydrochloride [IV-6]
- Inhibited ratio of uptake for NA(%) [3]: 107%
- Inhibited ratio of uptake for 5-HT(%) [4]: 79%

Molecule: N^1-(4-nitrobenzyl)-N^4-(2-phenylethyl-2-ol) piperazine dihydrochloride [IV-26]
- Inhibited ratio of uptake for NA(%) [3]: 80%
- Inhibited ratio of uptake for 5-HT(%) [4]: 63%

Molecule: N^1-(R-1-phenylethyl)-N^4-[1-(5-chloro-6-methoxyl-naphthalen-2-yl)-propane-2-yl-1-ol] piperazine dihydrochloride [IV-35]
- Inhibited ratio of uptake for NA(%) [3]: 58%
- Inhibited ratio of uptake for 5-HT(%) [4]: 107%

Molecule: N^1-(S-1-phenylethyl)-N^4-[1-(5-chloro-6-methoxyl-naphthalen-2-yl)-propane-2-yl-1-ol] piperazine dihydrochloride [IV-34]
- Inhibited ratio of uptake for NA(%) [3]: 10%
- Inhibited ratio of uptake for 5-HT(%) [4]: 108%

Molecule: N^1-benzyl-N^4-[1-(5-chloro-6-methoxyl-naphthalen-2-yl)-propane-2-yl-1-ol] piperazine dihydrochloride [IV-19]
- LD50 (mice): about 1 g/kg
- immobile times of mouse, tail suspension test (mouse [1]; 50 mg/kg): 20.2 ± 16.05 s
- immobile times of mouse in water, forced swimming test (mouse [2]; 50 mg/kg): 46.3 ± 30.2 s
- Ames TS result (increase of revertants) ([5]; TA97, TA98, TA100, TA102, without S9 and with S9, all tested doses): negative
- inhibitory effect for the growth of bacteria ([5]; TA97, with S9, 5000 μg/utensil): inhibitory effect
- inhibitory effect for the growth of bacteria ([5]; TA98, without S9, 5000 μg/utensil): inhibitory effect
- Inhibited ratio of uptake for NA(%) [3]: 140%
- Inhibited ratio of uptake for 5-HT(%) [4]: 114%

Molecule: N^1-benzyl-N^4-[2-(4-chlorophenyl)ethyl-2-ol] piperazine dihydrochloride [IV-4]
- Inhibited ratio of uptake for NA(%) [3]: 51%
- Inhibited ratio of uptake for 5-HT(%) [4]: 85%

Source: patent US7576086B2, “Aralkyl-alcohol peiperazine derivatives and their uses as antidepressant” (Shanghai Institute of Pharmaceutical Industry, priority 2002, dated 2009)
